Data reported in patent US7754919B2, “Non-nucleoside reverse transcriptase inhibitors” (Roche Palo Alto LLC, priority 2005, dated 2010).

Biological target: T1, HIV-1 RT (Human immunodeficiency virus type 1 group M subtype B, UniProt P03366)
Assay: Homopolymer HIV Reverse Transcriptase Assay: Inhibitor IC50 Determination
Assay type: biochemical
Settings: purified recombinant enzyme, poly(rA)/oligo(dT)16 template-primer, [3H] dTTP, 37° C. 30 min
Protocol: Homopolymer HIV Reverse Transcriptase Assay: Inhibitor IC50 Determination
HIV-1 RT assay was carried out in 96-well Millipore MultiScreen MADVNOB50 plates using purified recombinant enzyme and a poly(rA)/oligo(dT)16 template-primer in a total volume of 50 μL. The assay constituents were 50 mM Tris/HCl, 50 mM NaCl, 1 mM EDTA, 6 mM MgCl2, 5 μM dTTP, 0.15 μCi [^3H] dTTP, 5 μg/ml poly (rA) pre annealed to 2.5 μg/ml oligo (dT)16 and a range of inhibitor concentrations in a final concentration of 10% DMSO. reactions were initiated by adding 4 nM HIV-1 RT and after incubation at 37° C. for 30 min, they were stopped by the addition of 50 μl ice cold 20%TCA and allowed to precipitate at 4° C. for 30 min. The precipitates were collected by applying vacuum to the plate and sequentially washing with 3×200 μl of 10% TCA and 2×200 μl 70% ethanol. Finally, the plates were dried and radioactivity counted in a Packard TopCounter after the addition of 25 μl scintillation fluid per well. IC50's were calculated by plotting % inhibition versus log10 inhibitor concentrations.

In order of falling IC50:
1. Cc1cc(C(=O)NCCN2CCC(O)CC2)ccc1NC(=O)Cc1ccc(Br)c(Oc2cc(Cl)cc(C#N)c2)c1F [Compound I-25, 4-{2-[4-Bromo-3-(3-chloro-5-cyano-phenoxy)-2-fluoro-phenyl]-acetylamino}-N-[2-(4-hydroxy-piperidin-1-yl)-ethyl]-3-methyl-benzamide]  55.2 nM
2. Cc1cc(C(=O)NCCN2CCNCC2)ccc1NC(=O)Cc1ccc(Br)c(Oc2cc(Cl)cc(C#N)c2)c1F [Compound I-30, 4-{2-[4-Bromo-3-(3-chloro-5-cyano-phenoxy)-2-fluoro-phenyl]-acetylamino}-3-methyl-N-(2-piperazin-1-yl-ethyl)-benzamide]  20.9 nM
3. Cc1cc(C(=O)NCC(O)CO)ccc1NC(=O)Cc1ccc(Cl)c(Oc2cc(Cl)cc(C#N)c2)c1F (stereo not drawn) [Compound I-20, 4-{2-[4-Chloro-3-(3-chloro-5-cyano-phenoxy)-2-fluoro-phenyl]-acetylamino}-N-(2,3-dihydroxy-propyl)-3-methyl-benzamide]  20.6 nM
4. Cc1cc(C(=O)NC[C@@H](C)O)ccc1NC(=O)Cc1ccc(Cl)c(Oc2cc(Cl)cc(C#N)c2)c1F [Compound I-10, 4-{2-[4-Chloro-3-(3-chloro-5-cyano-phenoxy)-2-fluoro-phenyl]-acetylamino}-N-((R)-2-hydroxy-propyl)-3-methyl-benzamide]  18.3 nM
5. Cc1cc(C(=O)NCc2cccnc2)ccc1NC(=O)Cc1ccc(Cl)c(Oc2cc(Cl)cc(C#N)c2)c1F [Compound I-15, 4-{2-[4-Chloro-3-(3-chloro-5-cyano-phenoxy)-2-fluoro-phenyl]-acetylamino}-3-methyl-N-pyridin-3-ylmethyl-benzamide; compound with trifluoro-acetic acid]  16.6 nM
6. Cc1cc(C(=O)NCCN(C)C)ccc1NC(=O)Cc1ccc(Cl)c(Oc2cc(Cl)cc(C#N)c2)c1F [Compound I-5, 4-{2-[4-Chloro-3-(3-chloro-5-cyano-phenoxy)-2-fluoro-phenyl]-acetylamino}-N-(2-dimethylamino-ethyl)-3-methyl-benzamide; compound with trifluoro-acetic acid]  15.4 nM
7. Cc1cc(C(=O)NS(C)(=O)=O)ccc1NC(=O)Cc1ccc(Br)c(Oc2cc(Cl)cc(C#N)c2)c1F [Compound I-36, 2-[4-Bromo-3-(3-chloro-5-cyano-phenoxy)-2-fluoro-phenyl]-N-(4-methanesulfonylaminocarbonyl-2-methyl-phenyl)-acetamide]  4.6 nM

Biological target: T1, HIV-1 RT
Assay: Heteropolymer HIV reverse Transcriptase Assay: Inhibitor IC50 Determination
Assay type: biochemical
Settings: RNA-dependent DNA polymerase activity, biotinylated DNA primer/RNA template, SPA beads, 30°C 30 min
Protocol: Heteropolymer HIV reverse Transcriptase Assay: Inhibitor IC50 Determination
RNA-dependent DNA polymerase activity was measured using a biotinylated primer oligonucleotide and tritiated dNTP substrate. Newly synthesized DNA was quantified by capturing the biotinylated primer molecules on streptavidin coated Scintillation Proximity Assay (SPA) beads (Amersham). The sequences of the polymerase assay substrate were: 18nt DNA primer, 5′-Biotin/GTC CCT GTT CGG GCG CCA-3′ (SEQ. ID NO. 2); 47nt RNA template, 5′-GGGUCUCUCUGGUUAGACCACUCUAGCAGUGGCGCCCGAACAGGGAC-3′ (SEQ ID NO. 1). The biotinylated DNA primer was obtained from the Integrated DNA Technologies Inc. and the RNA template was synthesized by Dharmacon. The DNA polymerase assay (final volume 50 μl) contained 32 nM biotinylated DNA primer, 64 nM RNA substrate, dGTP, dCTP, dTTP (each at 5 μM), 103 nM [^3H]-dATP (specific activity=[…]), in 45 mM Tris-HCl, pH 8.0, 45 mM NaCl, 2.7 mM Mg(CH3COO)2, 0.045% Triton X-100 w/v, 0.9 mM EDTA. The reactions contained 5 μl of serial compound dilutions in 100% DMSO for IC50 determination and the final concentrations of DMSO were 10%. Reactions were initiated by the addition of 30 μl of the HIV-1-RT enzyme (final concentrations of 1-3 nM). Protein concentrations were adjusted to provide linear product formation for at least 30 min of incubation. After incubation at 30°C for 30 min, the reaction was quenched by addition of 50 μl of 200 mM EDTA (pH 8.0) and 2 mg/ml SA-PVT SPA beads (Amersham, RPNQ0009, reconstituted in 20 mM Tris-HCl, pH 8.0, 100 mM EDTA and 1% BSA). The beads were left to settle overnight and the SPA signals were counted in a 96-well top counter-NXT (Packard). IC50 values were obtained by sigmoidal regression analysis using GraphPad Prism 3.0 (GraphPad Software, Inc.).

For Cl.N#Cc1cc(Cl)cc(Oc2c(Br)ccc(CC(=O)Nc3ccc(C(=O)NCCN4CCC(F)(F)CC4)cc3Cl)c2F)c1 [Compound I-40, 4-{2-[4-Bromo-3-(3-chloro-5-cyano-phenoxy)-2-fluoro-phenyl]-acetylamino}-3-chloro-N-[2-(4,4-difluoro-piperidin-1-yl)-ethyl]-benzamide; hydrochloride salt], the IC50 was 37 nM.

System: not given
Assay: not given
Settings: not given

First: Cc1cc(C(=O)O)ccc1NC(=O)Cc1ccc(Br)c(Oc2cc(C#N)cc(C(F)F)c2)c1F
Second: Cc1cc(C(=O)O)ccc1NC(=O)Cc1ccc(Br)c(Oc2cc(Cl)cc(C#N)c2)c1F
The melting point of the first is lower: 267.9 to 268.1 °C for the first, 270 to 270.8 °C for the second.

First: Cc1cc(C(=O)NCCN(C)C)ccc1NC(=O)Cc1ccc(Br)c(Oc2cc(C#N)cc(C(F)F)c2)c1F
Second: Cc1cc(C(=O)NC[C@@H](C)O)ccc1NC(=O)Cc1ccc(Br)c(Oc2cc(C#N)cc(C(F)F)c2)c1F
The melting point of the first is lower: 205.6 to 206.6 °C for the first, 225.5 to 228.8 °C for the second.

First: N#Cc1cc(Cl)cc(Oc2c(Cl)ccc(CC(=O)Nc3ccc(C(=O)O)cc3Cl)c2F)c1
Second: Cc1cc(C(=O)O)ccc1NC(=O)Cc1ccc(Cl)c(Oc2cc(Cl)cc(C#N)c2)c1F
The melting point of the first is lower: 242 to 243 °C for the first, 287.1 to 289.1 °C for the second.

First: Cc1cc(C(N)=O)ccc1NC(=O)Cc1ccc(Cl)c(Oc2cc(Cl)cc(C#N)c2)c1F
Second: Cc1cc(C(=O)NCCN)ccc1NC(=O)Cc1ccc(Cl)c(Oc2cc(Cl)cc(C#N)c2)c1F
The melting point of the first is higher: 255.9 to 257.1 °C for the first, 207.6 to 208.6 °C for the second.

Compared with CN(C)CCNC(=O)c1ccc(NC(=O)Cc2ccc(Cl)c(Oc3cc(Cl)cc(C#N)c3)c2F)c(Cl)c1, Cc1cc(C(=O)NCCN(C)C)ccc1NC(=O)Cc1ccc(Cl)c(Oc2cc(Cl)cc(C#N)c2)c1F is higher in melting point: 202.8 to 203.6 °C for the first, 213.3 to 216 °C for the second.

First: Cc1cc(C(=O)NCCN2CCS(=O)(=O)CC2)ccc1NC(=O)Cc1ccc(Br)c(Oc2cc(Cl)cc(C#N)c2)c1F
Second: Cc1cc(C(=O)NCCN2CCCC2)ccc1NC(=O)Cc1ccc(Br)c(Oc2cc(Cl)cc(C#N)c2)c1F
The melting point of the first is lower: 168.1 to 170.1 °C for the first, 214.7 to 216.9 °C for the second.

First: Cc1cc(C(=O)NC(C)CN(C)C)ccc1NC(=O)Cc1ccc(Br)c(Oc2cc(Cl)cc(C#N)c2)c1F (stereo not drawn)
Second: CC(CN(C)C)NC(=O)c1ccc(NC(=O)Cc2ccc(Br)c(Oc3cc(Cl)cc(C#N)c3)c2F)c(Cl)c1 (stereo not drawn)
The melting point of the first is higher: 222 to 223.2 °C for the first, 190.1 °C for the second.

Compared with Cc1cc(C(=O)NCCN2CCOCC2)ccc1NC(=O)Cc1ccc(Br)c(Oc2cc(Cl)cc(C#N)c2)c1F, Cc1cc(C(=O)NCCN2CCNCC2)ccc1NC(=O)Cc1ccc(Br)c(Oc2cc(Cl)cc(C#N)c2)c1F [Compound I-30, 4-{2-[4-Bromo-3-(3-chloro-5-cyano-phenoxy)-2-fluoro-phenyl]-acetylamino}-3-methyl-N-(2-piperazin-1-yl-ethyl)-benzamide] is lower in melting point: 219.8 to 222 °C for the first, 126.5 to 127 °C for the second.

First: Cc1cc(C(=O)NC2CCNC2)ccc1NC(=O)Cc1ccc(Br)c(Oc2cc(Cl)cc(C#N)c2)c1F (stereo not drawn)
Second: Cc1cc(C(=O)NS(C)(=O)=O)ccc1NC(=O)Cc1ccc(Br)c(Oc2cc(Cl)cc(C#N)c2)c1F [Compound I-36, 2-[4-Bromo-3-(3-chloro-5-cyano-phenoxy)-2-fluoro-phenyl]-N-(4-methanesulfonylaminocarbonyl-2-methyl-phenyl)-acetamide]
The melting point of the first is lower: 117.8 to 120 °C for the first, 244.9 to 246.7 °C for the second.

First: N#Cc1cc(Cl)cc(Oc2c(Br)ccc(CC(=O)Nc3ccc(C(=O)NCCN4CCCC4)cc3Cl)c2F)c1
Second: N#Cc1cc(Oc2c(Br)ccc(CC(=O)Nc3ccc(C(=O)NCCN4CCCC4)cc3Cl)c2F)cc(C(F)F)c1
The melting point of the first is higher: 197.7 to 198.3 °C for the first, 160 to 165.7 °C for the second.

First: Cc1cc(C(=O)NCCN2CCCC2)ccc1NC(=O)Cc1ccc(Br)c(Oc2cc(C#N)cc(C(F)F)c2)c1F
Second: Cc1cc(C(=O)NCCN2CCC(O)CC2)ccc1NC(=O)Cc1ccc(Br)c(Oc2cc(Cl)cc(C#N)c2)c1F [Compound I-25, 4-{2-[4-Bromo-3-(3-chloro-5-cyano-phenoxy)-2-fluoro-phenyl]-acetylamino}-N-[2-(4-hydroxy-piperidin-1-yl)-ethyl]-3-methyl-benzamide]
The melting point of the first is lower: 202.4 to 203.7 °C for the first, 219.6 to 221.6 °C for the second.

Compared with N#Cc1cc(Cl)cc(Oc2c(Br)ccc(CC(=O)Nc3ccc(C(=O)NC(=N)N)cc3Cl)c2F)c1, CC(C)(CN)NC(=O)c1ccc(NC(=O)Cc2ccc(Br)c(Oc3cc(Cl)cc(C#N)c3)c2F)c(Cl)c1.Cl is lower in melting point: 207 to 209 °C for the first, 158 to 160.8 °C for the second.

First: N#Cc1cc(Cl)cc(Oc2c(Br)ccc(CC(=O)Nc3ccc(C(=O)NCCN(CCO)CCO)cc3Cl)c2F)c1
Second: CC(CO)(CO)NC(=O)c1ccc(NC(=O)Cc2ccc(Br)c(Oc3cc(Cl)cc(C#N)c3)c2F)c(Cl)c1
The melting point of the first is higher: 100.1 °C for the first, 69.1 °C for the second.

First: CCN1CCCC1CNC(=O)c1ccc(NC(=O)Cc2ccc(Br)c(Oc3cc(Cl)cc(C#N)c3)c2F)c(Cl)c1 (stereo not drawn)
Second: CC1CC[C@@H](C)N1CCNC(=O)c1ccc(NC(=O)Cc2ccc(Br)c(Oc3cc(Cl)cc(C#N)c3)c2F)c(Cl)c1 (stereo partly drawn)
The melting point of the first is higher: 212 °C for the first, 179 to 181 °C for the second.

Compared with CC1(NC(=O)c2ccc(NC(=O)Cc3ccc(Br)c(Oc4cc(Cl)cc(C#N)c4)c3F)c(Cl)c2)CCNCC1.O=C(O)C(F)(F)F, N#Cc1cc(Cl)cc(Oc2c(Br)ccc(CC(=O)Nc3ccc(C(=O)NC4(CN)CC4)cc3Cl)c2F)c1.O=C(O)C(F)(F)F is higher in melting point: 130.5 °C for the first, 148 to 152.4 °C for the second.

First: N#Cc1cc(Cl)cc(Oc2c(Br)ccc(CC(=O)Nc3ccc(C(=O)NC4(CO)CC4)cc3Cl)c2F)c1
Second: CN1CCC(C)(NC(=O)c2ccc(NC(=O)Cc3ccc(Br)c(Oc4cc(Cl)cc(C#N)c4)c3F)c(Cl)c2)CC1
The melting point of the first is higher: 247.7 to 250.1 °C for the first, 96 °C for the second.

Compared with CC1(NC(=O)c2ccc(NC(=O)Cc3ccc(Br)c(Oc4cc(Cl)cc(C#N)c4)c3F)c(Cl)c2)CCS(=O)(=O)C1 (stereo not drawn), N#Cc1cc(Cl)cc(Oc2c(Br)ccc(CC(=O)Nc3ccc(C(=O)N[C@@H]4CS(=O)(=O)C[C@H]4O)cc3Cl)c2F)c1 is higher in melting point: 95 to 105 °C for the first, 245 °C for the second.

First: CS(=O)(=O)CCNC(=O)c1ccc(NC(=O)Cc2ccc(Br)c(Oc3cc(Cl)cc(C#N)c3)c2F)c(Cl)c1
Second: Cl.N#Cc1cc(Cl)cc(Oc2c(Br)ccc(CC(=O)Nc3ccc(C(=O)NCCN4CCC(F)(F)CC4)cc3Cl)c2F)c1 [Compound I-40, 4-{2-[4-Bromo-3-(3-chloro-5-cyano-phenoxy)-2-fluoro-phenyl]-acetylamino}-3-chloro-N-[2-(4,4-difluoro-piperidin-1-yl)-ethyl]-benzamide; hydrochloride salt]
The melting point of the first is higher: 235.5 °C for the first, 140.2 to 143.3 °C for the second.

Work on Cc1cc(C(=O)NC[C@@H](C)O)ccc1NC(=O)Cc1ccc(Cl)c(Oc2cc(Cl)cc(C#N)c2)c1F [Compound I-10, 4-{2-[4-Chloro-3-(3-chloro-5-cyano-phenoxy)-2-fluoro-phenyl]-acetylamino}-N-((R)-2-hydroxy-propyl)-3-methyl-benzamide] yielded a melting point of 249 to 249.4 °C.
